Experiments:
[1] = system: HIV-1 replication in H9 cells; assay: HIV-1 replication inhibition in acutely infected H9 lymphocytes (p24 antigen ELISA); format: cell-based, HIV-1 (IIIB strain); conditions: for EC50: Human immunodeficiency virus 1, H9, acutely infected H9 cells, read-out: EC50; for EC50 / IC50: concentration which inhibits viral replication by 50%, Inactive = No suppression of HIV-1 replication in H9 cells; for IC50: Human immunodeficiency virus 1, read-out: IC50 (μM)^b
Method: (§1) HIV inhibition assay. The HIV inhibition was measured as described herein. Briefly, H9 cells, a T cell line, (3.5×10^6 cells/ml) were incubated in the presence or absence of HIV-1 (IIIB strain, 0.01-0.1 TCID50 /cell) for 1 hour at 37° C. Cells were washed thoroughly and resuspended at a final concentration of 2×10^5 cells/ml in the presence or absence of compound. After incubation for 3-4 days at 37° C., the cell density of uninfected cultures was determined by cell count to assess toxicity of the drug. An aliquot of each cell-free supernatant was assayed by p24 antigen ELISA to quantitate the amount of HIV-1 present in the infected cultures. Test compounds were considered to be active at a particular concentration if p24 antigen levels were less than 70% of infected, untreated controls and were nontoxic to uninfected H9 cells.
(§2) HIV Growth Inhibition Assay: The T cell line, H9, and the promonocytic cell line, U937, were maintained separately in continuous culture with complete medium (RPMI 1640 and […] fetal calf serum (FCS) at 5% CO2 and 37° C. Cell lines were used in experiments only when in log phase of growth; whereas, uninfected peripheral blood mononuclear cells (PBMCs) were first stimulated with PHA (1 μg/ml) for 3 days. All cell targets were incubated with HIV-1 (IIIB isolate, TCID50 10 ^4 IU/mi, at a multiplicity of infection of 0.1-0.01 IU/cell) for 1 hour at 37° C. and 5% CO2. The cell lines and PBMCs were washed thoroughly to remove unabsorbed virions and resuspended at 4×10^5 cells/ml in complete medium or complete medium with 10% v/v interleukin […] IL-2, respectively. Aliquots ( ml) were placed in wells of 24-well culture plates containing an equal volume of test compound (diluted in the appropriate culture medium). After incubation for 4 days at 37° C., cell density of uninfected cultures was determined by counting cells in a Coulter counter to assess toxicity of the test compound. A p24 antigen ELISA assay was used to determine the level of virus released in the medium of the HIV-infected cultures. The p24 antigen assay uses a HIV-1 anti-p24 specific monoclonal antibody as the capture antibody coated-on 96-well plates. Following a sample incubation period, rabbit serum containing antibodies for HIV-1 p24 is used to tag any p24 "captured" onto the microtiter well surface. Peroxidase conjugated goat anti-rabbit serum is then used to tag HIV-1 p24 specific rabbit antibodies which have complexed with captured p24. […] The cut-off for the p24 ELISA assay is 12. pg/ml. P24 in the culture medium was quantitated against a standard curve containing known amounts of p24. The effective (EC50) and inhibitory (IC50) concentrations (for anti-HIV activity and cytotoxicity, respectively) were determined graphically. Both the EC50 and IC50 values were calculated by plotting drug concentration versus percent inhibition, and then identifying a 50% inhibition value from the graph.

[2] = system: HIV-1 replication in H9 cells; assay: Combination study of suksdorfin with AZT, ddI and ddC: HIV-1 replication in acutely infected H9 cells; format: cell-based, HIV-1 (IIIB); conditions: for EC50 / IC50: Human immunodeficiency virus 1, H9; for EC50 / IC50 / Therapeutic Index: combinations with 4 μg/ml suksdorfin; for EC50: read-out: EC50; for IC50: concentration which inhibits viral replication by 50%, read-out: IC50 (μM)^b
Method: as §2, with “surface.” for “surface. Peroxidase conjugated goat anti-rabbit serum is then used to tag HIV-1 p24 specific rabbit antibodies which have complexed with captured p24.”, “The effective (EC50) and inhibitory (IC50) concentrations (for anti-HIV activity and cytotoxicity, respectively) were determined graphically.” left out
Combination Study: The experimental design is identical to the growth inhibition assay except that various concentrations of AZT, ddI or ddC were also added to cultures of acutely HIV-1 infected H9 cells that either have or have no received different concentrations of suksdorfin. The concentrations of AZT, ddI and ddC were 5 ten-fold dilutions starting at 1 μg/ml. [drawing 104] [drawing 105]

uninfected H9 cells [3] = assay: Combination study of suksdorfin with AZT, ddI and ddC: toxicity to uninfected H9 cells; format: cell-based; conditions: Homo sapiens, H9, combinations with 4 μg/ml suksdorfin
Method: Pharm. Asso. […] Aliquots ( ml) were placed in wells of 24-well culture plates containing an equal volume of test compound (diluted in the appropriate culture medium). After incubation for 4 days at 37° C., cell density of uninfected cultures was determined by counting cells in a Coulter counter to assess toxicity of the test compound. A p24 antigen ELISA assay was used to determine the level of virus released in the medium of the HIV-infected cultures. The p24 antigen assay uses a HIV-1 anti-p24 specific monoclonal antibody as the capture antibody coated-on 96-well plates. Following a sample incubation period, rabbit serum containing antibodies for HIV-1 p24 is used to tag any p24 "captured" onto the microtiter well surface. […] The cut-off for the p24 ELISA assay is 12. pg/ml. P24 in the culture medium was quantitated against a standard curve containing known amounts of p24. The effective (EC50) and inhibitory (IC50) concentrations (for anti-HIV activity and cytotoxicity, respectively) were determined graphically.
Combination Study: The experimental design is identical to the growth inhibition assay except that various concentrations of AZT, ddI or ddC were also added to cultures of acutely HIV-1 infected H9 cells that either have or have no received different concentrations of suksdorfin.

uninfected H9 cells [4] = assay: Toxicity to uninfected H9 cells (cell growth); format: cell-based; conditions: Homo sapiens
Method: as §1, §2

[5] = IC50 for cell growth inhibition divided by EC50 for HIV inhibition, H9
[6] = Table 16, concentration which inhibits uninfected cell growth by 50%, read-out: IC50 (μM)^a
[7] = H9, Table 14, concentration which inhibits uninfected cell growth by 50%, read-out: IC50 (μM)^a
[8] = H9, concentration which inhibits uninfected cell growth by 50%, read-out: IC50

| SMILES | Therapeutic Index [1, 5] | EC50 ([2]; Table 5) | IC50 ([2]; Table 16) | Therapeutic Index ([2]; Table 5) | Therapeutic Index ([2]; Table 16) | decrease of EC50 in presence of suksdorfin ([2]; with 4 μg/ml suksdorfin, H9) | reduction of amount of nucleoside needed in presence of suksdorfin ([2]; with 4 μg/ml suksdorfin, H9) | IC50 (uninfected H9 cells [3]; Table 5, read-out: IC50) | IC50 (uninfected H9 cells [3]; [6]) | EC50 [1] | IC50 ([1]; Table 14) | Therapeutic Index ([1]; Table 14) | IC50 (uninfected H9 cells [4]; [7]) | IC50 (uninfected H9 cells [4]; [8]) |
| --- | --- | --- | --- | --- | --- | --- | --- | --- | --- | --- | --- | --- | --- | --- |
| O=c1[nH]cnc2c1ncn2[C@H]1CC[C@@H](CO)O1 [ddI] | > 400 | 0.4 µg/mL | 0.4 µg/mL | > 2.5 | > 2.5 | 4000 fold | 4000 fold | > 1 µg/mL | > 1 µg/mL | – | – | – | – | – |
| C/C=C(/C)C(=O)OC(C)(C)[C@@H]1Cc2c(ccc3ccc(=O)oc23)O1 [Columbianadin, columbianadin, reference compound] | > 1.3 | – | – | – | – | – | – | – | – | 4.6 µM | 4.6 µM | > 1.3 | > 6.1 µM | > 6.1 µM |
| Nc1ccn([C@H]2CC[C@@H](CO)O2)c(=O)n1 [ddC, dideoxycytidine] | – | 0.004 µg/mL | 0.004 µg/mL | > 250 | > 250 | 40 fold | – | > 1 µg/mL | > 1 µg/mL | – | – | – | – | – |
| COc1c2ccoc2cc2oc(=O)ccc12 [Bergapten, bergapten, reference compound] | > 3.1 | – | – | – | – | – | – | – | – | 30.1 µM | 30.1 µM | > 3.1 | > 92.6 µM | > 92.6 µM |
